Assay results as given in patent EP0801947B1, “Use of octopirox as skin depigmentation agent” (L'OREAL, priority 1996, dated 1997).

Tested on: tyrosinase de champignons
Test: Inhibition of the dopa-oxidase activity of mushroom tyrosinase (dopachrome formation followed by visible spectrometry at 475 nm)
Format: biochemical
Text: Un test a mis en évidence l'activité de l'octopirox comme inhibiteur de la tyrosinase par évaluation de son effet inhibiteur sur l'activité dopa-oxydase de la tyrosinase des mélanocytes de champignons.
Selon ce test, on suit par spectrométrie visible à 475 nm la quantité de dopachrome formée au cours de la chaîne de réaction de transformation de la tyrosine en mélanine, en fonction du temps. Ces réactions sont catalysées in vitro par la tyrosinase de champignons, en présence d'un co-substrat réducteur (la L-dopa en petite quantité) pour initier la réaction d'hydroxylation de la L-tyrosine en L-dopa, laquelle est ensuite oxydée catalytiquement en dopaquinone puis en dopachrome, produit intermédiaire avant les réactions d'oxydation non enzymatiques aboutissant à la formation de mélanine.
Le milieu réactionnel utilisé pour réaliser ce test comprend 1 ml d'une solution de L-tyrosine à 2.10^-3 M dans du tampon phosphate 0,1 M de pH = 6,5, 0,1 ml de solution de L-dopa à 10^-4 M dans le tampon phosphate, 0,05 ml de solution de tyrosinase de champignons à 2.400 unités/ml dans le tampon phosphate et 1,85 ml de solution de l'inhibiteur à 10^-2 M dans le tampon phosphate. Pour le témoin, la quantité d'inhibiteur a été remplacée par de l'éthanol. […]
La concentration de 10^-2 M d'octopirox dans le milieu réactionnel correspond à une quantité équimolaire par rapport à la tyrosine utilisée. […]

## Cc1cc(CC(C)CC(C)(C)C)n(O)c(=O)c1 (centres unmarked) [octopirox, 1-hydroxy-4-méthyl-6-(2,4,4-triméthylpentyl)-2(1H)-pyridinone]
Inhibitor solution 10^-2 M in phosphate buffer 0,1 M pH 6,5, L-tyrosine 2.10^-3 M, L-dopa 10^-4 M, control (ethanol) 9,5 minutes, figure 1 curves (b)
  temps pour obtenir le même pourcentage de dopachrome formée, par exemple 100 %: 14 min
Inhibitor solution 10^-2 M, compared with control curve (a), figure 1, result in words
  quantité de dopachrome formée au cours du temps: net ralentissement de la quantité de dopachrome formée au cours du temps
